# Paper PMC3170320, “Minimal Antizyme Peptide Fully Functioning in the Binding and Inhibition of Ornithine Decarboxylase and Antizyme Inhibitor” (PLoS ONE, 2011)
# Entries after “also recorded” stand apart in the source; their conditions may differ.
# Assays:
# [1] = biological target: human ODC; assay: ODC enzyme activity inhibition by AZ peptides (without AZI); type: biochemical; conditions: for IC50 (AZ peptide)/IC50 (AZ_WT): ratio to AZ_WT; for IC50: ODC fixed at 20 µg/mL (0.19 µM), CO2-L3K coupled assay, 405 nm, 37°C, 30 mM Tris-HCl pH 7.8, 10 mM ornithine, 0.2 mM PLP, fit of inhibition curves; for ODC inhibition ability (in words): relative ODC activity, Figure 2
# Method: Figure 2 Relative ODC enzyme activity in the presence of AZ peptides. The activity of ODC was inhibited by various concentrations of AZ peptides. ODC concentrations were fixed at 20 µg/mL (0.19 µM). The IC50 values of AZ peptides shown in Table 1 were derived from fitting these inhibition curves. The molar ratio refers to AZ peptide versus ODC monomer.
# (§1) The ODC enzyme activity was determined using a CO2-L3K assay kit (DCL, Charlottetown, Canada) at 37°C. The continuous measurement of ODC enzyme activity was coupled to the carboxylation of PEP to oxaloacetate and the oxidation of oxaloacetate to malate, as previously reported. The reaction mixture contains 30 mM Tris-HCl at pH 7.8, 10 mM ornithine, 0.2 mM […] and 0.4 ml of the CO2-L3K assay kit solution, which contains 12.5 mM PEP, >0.4 U/ml phosphoenolpyruvate carboxylase (microbial), >4.1 U/ml malate dehydrogenase (mammalian) and 0.6 mM NADH analog in a final volume of 0.5 ml.
# For the AZ inhibition experiment, the ODC enzyme (0.19 µM) and various amounts of AZ were added to the reaction mixture. The reaction was started after the ODC was added, and the absorbance decrease at 405 nm was continuously traced using a Perkin-Elmer Lamba-25 spectrophotometer. In this coupled reaction, the production of 1 mol of CO2 was concomitant with the oxidation of 1 mol of NADH analog. An extinction coefficient of 2410 M ^−1 was used for the NADH analog in the calculations.
# (§2) To evaluate the inhibitory effect of AZ, the inhibited ODC enzyme activity versus [AZ] was fitted with the following equation to estimate the IC50 value: [drawing 1] where A and B are the minimum and maximum ODC enzyme activity, respectively, and the Hill slope gives the largest slope of the curve. The IC50 value represents the concentration of AZ required for 50% inhibition of ODC enzyme activity. All of the calculations were done using the SigmaPlot 10.0 software program (Jandel, San Rafael, CA).
# [2] = biological target: human ODC (equilibrated with equimolar AZI); assay: ODC enzyme activity inhibition by AZ peptides in the presence of AZI; type: biochemical; conditions: for IC50 (with AZI)/IC50 (without AZI): ratio with/without equimolar AZI
# Method: AZ has a greater affinity for AZI than ODC, such that the formation of an AZ-AZI heterodimer will release the ODC monomer from an AZ-ODC complex and rapidly restore ODC enzyme activity. Here, we examined the inhibition of ODC enzyme activity by AZ peptides in the presence of AZI. The ODC enzyme was first pre-incubated with AZI, keeping the molar ratio of AZI monomer/ODC monomer at unity. […] Table 1 illustrates the IC50 values of the AZ peptides in the presence of AZI, showing that all of the IC50 values for the AZ peptides with AZI were larger than the values without AZI.
# Figure 4 Relative ODC enzyme activities in the presence of AZ and AZI. ODC enzymes equilibrated with equimolar AZI were inhibited by various concentrations of AZ peptides. The concentrations of AZI and ODC were fixed at 18.9 µg/mL and 20 µg/mL, respectively (the ratio of AZI monomer versus ODC monomer was fixed at 1). Panels A–H show the inhibition curves of ODC for each AZ peptide in the absence (closed circles) and in the presence (open circles) of AZI.
# as §1, §2
# [3] = system: human ODC; assay: AZ peptide-ODC complex size distribution by analytical ultracentrifugation; type: binding; conditions: for K d,AZ-ODC fold higher than that of AZ_WT: ratio to AZ_WT
# Method: AZ binds ODC, dissociates the ODC dimer and then inactivates the enzyme, [20]. […] In order to determine the differential binding affinity of these AZ peptides toward ODC, the size distributions of ODC with different concentrations of AZ peptides were analyzed. All sedimentation data were globally fitted with the AB hetero-association model in the SEDPHAT program to obtain the dissociation constant (K d) between ODC and AZ (Figure 3 and Table 2).
# Figure 3 Continuous sedimentation coefficient distribution of human ODC in the presence of AZ peptide. The concentration of ODC was fixed at 0.3 mg/mL with concentrations of AZ ranging from 0.015 to 0.2 mg/mL (the molar ratio of AZ/ODC ranged from 0.12 to 2) in a buffer of 30 mM Tris-HCl (pH 7.4) and 25 mM NaCl at 20°C. The sedimentation velocity data were globally fitted with the SEDTHAT program to obtain K d values for the AZ peptide-ODC complex (Table 2).
# A Beckman Optima XL-A analytical ultracentrifuge was used for sedimentation velocity experiments. Reference and sample sectors in the centerpiece were filled with buffer (400 µl) and sample protein (0.3 mg/mL, 380 µl), respectively, and then the cell was built up in an An-50 Ti rotor. Sedimentation velocity experiments were performed at 20°C with a rotor speed of 42,000 rpm. The data were traced by absorbance at 280 nm in continuous mode, with a time interval of 420 s and a step size of 0.002 cm. A total of 20–30 scans at different time points were collected and fitted to a continuous size distribution model using the program SEDFIT [54]–[55]. All size distributions were calculated at 0.1 to 20 S with a confidence level of p = 0.95 and a resolution N of 200.
# In order to determine the dissociation constants (K d) of the AZ peptide-ODC and AZ peptide-AZI complexes, sedimentation velocity experiments were performed at different concentrations of AZ or AZ peptide with a constant concentration of human ODC or AZI. The K d values of the AZ peptide-ODC and AZ peptide-AZI complexes were calculated by a global fitting of all sedimentation data in the AB hetero-association model in the SEDPHAT program [56]–[57]. The partial specific volumes of the proteins, the solvent densities, and the viscosity were calculated by the SEDNTERP program.
Substance,IC50 (AZ peptide)/IC50 (AZ_WT) [1],IC50 (with AZI)/IC50 (without AZI) [2],IC50 [1] [nM],ODC inhibition ability (in words) [1],"K d,AZ-ODC fold higher than that of AZ_WT [3] [fold]","Size distribution of ODC in the presence of AZ (in words) ([3]; sedimentation velocity, 20°C, Figure 3)","Inhibition of ODC with AZI relative to AZ_WT or to without AZI (in words) ([2]; equimolar AZI, Figure 4)"
"AZ_87-124: truncated human AZ protein, residues 87-124",3.2,3.0,–,–,–,–,–
"AZ_87-228: truncated human AZ protein, residues 87-228",1.1,–,170,–,–,–,–
"AZ_95-124: truncated human AZ protein, residues 95-124",4.0,3.0,–,–,–,–,–
"AZ_95-135: truncated human AZ protein, residues 95-135",3.2,3.1,–,–,–,–,–
"AZ_95-169: truncated human AZ protein, lacking β-strand 6, residues 95-169",2.3,–,370,displayed a noteworthy decrease in ODC inhibition ability,–,–,–
"AZ_95-176: minimal AZ peptide fully functioning in the binding of ODC and AZI, residues 95-176",1.2,3.4,–,retained most of the inhibition ability,7.8,–,–
"AZ_95-228: truncated human AZ protein, residues 95-228",1.0,3.5,–,also similar to that of AZ_WT,2.1,–,–
"AZ_100-124: truncated human AZ protein, residues 100-124",5.0,–,820,notably weaker inhibition ability than AZ_100-228,–,–,–
"AZ_100-135: truncated human AZ protein, residues 100-135",5.3,–,860,notably weaker inhibition ability than AZ_100-228,–,–,–
"AZ_100-176: truncated human AZ protein, residues 100-176",2.6,3.3,–,had a lower inhibition ability than that of AZ_100-228; also recorded: not as good as that of AZ_95-176 or AZ_100-228,–,–,–
"AZ_100-228: truncated human AZ protein, residues 100-228",1.3,3.0,–,–,7.5,–,–
"AZ_106-228: truncated human AZ protein, residues 106-228",2.3,–,370,weaker inhibition ability than AZ_100-228,–,–,–
"AZ_114-228: truncated human AZ protein, residues 114-228",6.0,–,970,–,–,–,–
"AZ_126-228: truncated human AZ protein, residues 126-228",7.3,–,1190,–,–,–,–
"AZ_152-228: truncated human AZ protein, residues 152-228",–,–,–,"almost no ODC inhibition, even at high concentrations of AZ",–,–,–
"AZ_177-228: truncated human AZ protein, residues 177-228 (HKNREDRAALLRTFSFLGFEIVRPGHPLVPKRPDACFMAYTFERESSGEEEE; UniProt P54368 177-228, looked up, fragment)",–,–,–,"almost no ODC inhibition, even at high concentrations of AZ; also recorded: displays no inhibition of ODC activity",–,–,–
Antizyme [AZ_WT],1.0,3.1,–,–,–,disrupted dimeric ODC to form AZ-ODC complexes,lower than in the absence of AZI
